Experimental data reported in patent US20230148605A1, “APPLICATION OF GERANIOL IN PREPARATION OF FORMULATION FOR PROMOTING SYNTHESIS OF PSEUDOMONAS AERUGINOSA 3OC12-HSL SIGNAL MOLECULES” (priority 2021, published 2023).

Key:
Assay type in all cases: cell-based
[1] = tested on: Pseudomonas aeruginosa PAO1; assay: Influence of geraniol on Pseudomonas aeruginosa PAO1 growth (growth curve, OD600, Bioscreen C)
Procedure: An LB medium and geraniol were respectively added to test tubes, joined with the PAO1 bacterial suspension in the exponential growth phase, to make total volumes all reach 10 mL, so that PAO1 bacterial concentrations were all 10^6 CFU/mL, and concentrations of geraniol were respectively 0 μL/mL (control), 0.313 μL/mL, 0.625 μL/mL, 1.25 μL/mL, and 2.5 μL/mL. Samples from the experimental groups were respectively added to a honeycomb culture plate dedicated to an automatic growth curve analyzer (Bioscreen C), which has each well added with 350 μL culture medium; and each experimental group has three parallel experiments. The honeycomb culture plate was placed in the automatic growth curve analyzer, for shaking culture at 37° C. for 3 days, with OD600 measured every hour. Taking OD600 as an ordinate and culture time as an abscissa, a growth curve of PAO1 under an action of geraniol was drawn to study influence of geraniol on PAO1 growth.

[2] = tested on: key genes in the Pseudomonas aeruginosa quorum sensing system and virulent genes regulated thereby; assay: Influence of geraniol on expression of key quorum sensing genes and regulated virulent genes (real-time fluorescent quantitative PCR); conditions: 1.25 μL/mL geraniol, 5 h, PAO1
Procedure: The PAO1 bacterial suspension in a logarithmic growth phase was added to 50 mL sterile LB liquid medium to make a final concentration of the bacterial solution reach 10^6 CFU/mL. Geraniol was added to make a final concentration become 0 μL/mL (three biological replicates in a control group were respectively named A1, A2 and A3) and 1.25 μL/mL (three biological replicates in an experimental group were respectively named B1, B2 and B3); the respective groups were cultured at 37° C. and 180 rpm for 5 h, centrifuged to collect Bacteria, and then snap-frozen at −80° C. for later use.
Total bacterial RNA was extracted with a kit of Trizol (Thermo Company). After extraction, purity of RNA was detected with an ultra-micro spectrophotometer (Implen, Munich, Germany). An A260/A280 value of each RNA sample should be between 1.8 and 2.0. Reverse transcription and real-time fluorescent quantitative PCR amplification were performed with the PrimeScript RT Master Mix kit (Takara, Dalian, China) and the ETC 811 PCR instrument (Beijing Eastwin Life Sciences, Inc.). A q-PCR reaction system adopted Takara's SYBR Premix Ex TaqII (Tli RNaseH Plus) (Code No. RR820A); the PCR program was pre-denaturation at 95° C. for 30 s; denaturation at 95° C. for 5 s, annealing at 60° C. for 34 s, 40 loops; according to the 10 gene sequences already published on the GenBank website, primers for q-PCR were designed with Primer Premier 5.0 software, and meanwhile, the 16SrRNA gene was used as an internal reference gene.
Table 1 Genes and primer sequences thereof used in real-time fluorescent quantitative PCR

[3] = tested on: key genes in the Pseudomonas aeruginosa quorum sensing system and virulent genes regulated thereby; assay: as above; conditions: low concentration of geraniol (0.313 to 2.5 μL/mL), PAO1; concluded from the experiments

CC(C)=CCC/C(C)=C/CO [geraniol, Geraniol]
growth of PAO1 cells (OD600 growth curve) ([1]; geraniol 0.313, 0.625, 1.25 and 2.5 μL/mL, LB, 37° C., 3 days): slightly inhibit growth | concentration dependence of effect on growth of PAO1 cells ([1]; geraniol 0.313 to 2.5 μL/mL): concentration-dependent inhibitory effect | antibacterial activity compared with other geraniol groups ([1]; geraniol 2.5 μL/mL): highest antibacterial activity | bacterial proliferation rate in the logarithmic growth phase ([1]; geraniol 2.5 μL/mL, versus other groups): significantly lower than other groups | expression level of pelF [2]: not significantly down-regulated | expression level of pslB [2]: not significantly down-regulated | expression level of the signal molecule synthase encoding gene rhl (rhl system) [2]: does not change significantly | expression level of toxA [2]: not significantly down-regulated | expression level of virulent gene chiC [2]: significantly down-regulated | expression level of virulent gene lasA [2]: significantly down-regulated | expression level of virulent gene lasB [2]: significantly down-regulated | expression level of virulent gene phzM [2]: significantly down-regulated | expression of lasI (signal molecule synthase gene, las system) [2]: up-regulated | expression of lasR (signal molecule receptor protein gene, las system) [2]: down-regulated | expression of pqsA (signal molecule synthase gene, pqs system) [2]: down-regulated | expression of pqsR (signal molecule receptor protein gene, pqs system) [2]: up-regulated | expression of rhlR (signal molecule receptor protein gene, rhl system) [2]: down-regulated | synthesis of 3OC12-HSL signal molecules [3]: significantly promote synthesis
